Earlier results as cited in patent US12116344B2, “Crystalline forms of a pharmaceutical compound” (Azafaros B.V., priority 2020, dated 2024).

Target: T1, glucosylceramide synthase (GCS) (Homo sapiens, UniProt Q16739)
T1 sequence (Q16739 1-394): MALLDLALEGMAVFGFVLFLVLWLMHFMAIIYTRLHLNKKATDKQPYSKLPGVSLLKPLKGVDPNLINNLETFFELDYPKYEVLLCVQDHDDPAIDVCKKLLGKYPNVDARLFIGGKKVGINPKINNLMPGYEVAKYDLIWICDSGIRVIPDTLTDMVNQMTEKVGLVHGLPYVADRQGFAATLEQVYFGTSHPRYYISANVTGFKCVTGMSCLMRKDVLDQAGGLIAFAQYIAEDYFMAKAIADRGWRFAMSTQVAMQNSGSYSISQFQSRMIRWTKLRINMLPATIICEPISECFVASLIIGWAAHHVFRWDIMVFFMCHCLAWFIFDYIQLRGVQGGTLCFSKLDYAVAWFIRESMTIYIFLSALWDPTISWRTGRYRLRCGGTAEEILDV
Details: stated in words only, no test described; cited from earlier work

OC[C@H]1[C@@H](O)[C@H](O)[C@@H](O)CN1CCCCCOCc1ccc(-c2ccccc2)c(F)c1 [AZ-3102]
Potency as inhibitor of GCS: highly potent (nM)
